Reference: US11213666B2, “Method for administering a medicament suitable for treating a migraine or cluster headache” (SORRENTO THERAPEUTICS, INC., priority 2016, dated 2022)
Like-named read-outs stand apart in the source and are kept apart here.

Columns and labels:
[1] = Porcine pharmacokinetic study of sumatriptan delivered by the microneedle fluid delivery apparatus (FIG. 50); type: in vivo, Yorkshire pigs; details: 20 mg via fluid delivery apparatus (microneedles), pig, blood serum; compared with nasal, oral and Zecuity administration
Procedure: In reference to FIG. 50, shown is the time versus concentration profile of sumatriptan as administered according to the methods and devices disclosed herein. An ideal profile (identified as “Target PK Profile”) is calculated based on the therapeutic efficiency of the medicament.
Thirty five 80 kg castrated or female Yorkshire pigs were placed under anesthesia and a catheter was inserted into the right or left jugular vein. After the catheter was placed, the pigs were kept under anesthesia and placed on their backs. The ventral region was shaved and covered with a depilatory cream (Nair Sensitive®) for 8 minutes. The cream was removed and the area washed with alcohol. The fluid delivery apparatus was placed against the skin with an adhesive and the microneedles (100 total) were inserted at a post traveling velocity of 6 m/s. A 20 mg dose of sumatriptan from the fluid deliver apparatus was delivered while the pig was under anesthesia. 3 mL blood samples were withdrawn at each time point and spun down to recover the blood serum.

[2] = cited from earlier work
[3] = nasal administration, compared with the actual profile of the fluid delivery apparatus (FIG. 49 vs FIG. 50)
[4] = subcutaneous administration, compared with the other routes of administration

With CNS(=O)(=O)Cc1ccc2[nH]cc(CCN(C)C)c2c1.O=C(O)CCC(=O)O [sumatriptan, 1-[3-[2-(dimethylamino)ethyl]-1H-indol-5-yl]-N-methylmethanesulfonamide butanedioic acid] the AUC [1] was “significantly improved”, the Css [1] was “significantly improved” and the Tmax [1] was “significantly improved”. The AUC [2, 3] was “significantly lower”, the Css [2, 3] was “significantly lower” and the Tmax ([2]; oral administration, compared with the actual profile of the fluid delivery apparatus) was “much slower”. For the same compound, the Css ([2]; subcutaneous administration, as time progresses) was “significantly lower”, the Cmax [2, 4] was “higher” and the Tmax [2, 4] was “much faster”.
